Drawing on patent US9493446B2, “Orexin receptor antagonists which are [ortho bi-(hetero-)aryl]-[2-(meta bi-(hetero-)aryl)-pyrrolidin-1-yl]-methanone derivatives” (Actelion Pharmaceuticals Ltd, priority 2012, dated 2016), this text covers IC50 for 33 compounds.

For assay [1], the target named is orexin-1 (Homo sapiens (Human), UniProt O43613). Briefly: Intracellular calcium measurement (FLIPR), CHO cells expressing human orexin-1 receptor, 3 nM orexin-A. It is filed as cell-based. As to conditions: read-out: IC50 OX1. The essentials: (§1)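 Antagonist is added 120 min before agonist. Fluo-4 AM-loaded CHO cells carry human orexin-1 or orexin-2 receptor, and calcium is read by FLIPR.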
Chain of orexin-1 (O43613 whole entry): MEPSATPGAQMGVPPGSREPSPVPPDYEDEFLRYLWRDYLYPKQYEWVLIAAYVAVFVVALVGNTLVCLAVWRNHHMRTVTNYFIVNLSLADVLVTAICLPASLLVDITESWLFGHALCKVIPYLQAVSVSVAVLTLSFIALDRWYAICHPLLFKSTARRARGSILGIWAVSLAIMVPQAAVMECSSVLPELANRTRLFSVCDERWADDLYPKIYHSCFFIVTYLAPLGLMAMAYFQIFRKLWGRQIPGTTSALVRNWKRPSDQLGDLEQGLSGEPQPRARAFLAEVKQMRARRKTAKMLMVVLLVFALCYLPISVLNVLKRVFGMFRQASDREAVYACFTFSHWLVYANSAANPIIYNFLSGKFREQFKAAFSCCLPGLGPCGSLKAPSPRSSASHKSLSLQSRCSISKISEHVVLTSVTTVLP
For orientation: A change in cytosolic calcium serves as a functional read-out for many receptors and channels.

Assay [2] deals with human orexin-2 receptor (Homo sapiens (Human), UniProt O43614). Briefly: Intracellular calcium measurement (FLIPR), CHO cells expressing human orexin-2 receptor, 3 nM orexin-A. As to conditions: read-out: IC50 OX2. It is filed as cell-based. A digest of the protocol: as §1
Chain of human orexin-2 receptor (O43614 whole entry): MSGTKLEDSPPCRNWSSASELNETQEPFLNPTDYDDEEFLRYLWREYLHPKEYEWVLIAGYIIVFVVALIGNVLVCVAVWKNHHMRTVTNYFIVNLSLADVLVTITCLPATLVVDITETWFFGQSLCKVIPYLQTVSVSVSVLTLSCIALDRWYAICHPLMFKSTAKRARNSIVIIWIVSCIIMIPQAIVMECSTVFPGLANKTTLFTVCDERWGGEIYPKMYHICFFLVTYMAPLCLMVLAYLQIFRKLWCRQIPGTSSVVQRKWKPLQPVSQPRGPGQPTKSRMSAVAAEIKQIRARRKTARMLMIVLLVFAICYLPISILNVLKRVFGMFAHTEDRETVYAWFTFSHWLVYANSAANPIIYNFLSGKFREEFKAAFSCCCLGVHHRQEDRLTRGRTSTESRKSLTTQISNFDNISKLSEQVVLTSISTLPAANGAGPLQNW
Where [3] appears, read: CHO cells expressing human orexin-2 receptor, FLIPR, 3 nM orexin-A, geometric mean if determined several times.
Setting [4] is: CHO cells expressing human orexin-1 receptor, FLIPR, 3 nM orexin-A, geometric mean if determined several times.

Like-named read-outs stand apart in the source and are kept apart here.

As usually defined, the IC50 is the point on the concentration scale where inhibition reaches its midpoint. Take `Cc1cccc(-c2nc([C@@H]3CCCN3C(=O)c3cc(Cl)ccc3-n3nccn3)no2)c1C` [compound 394]: the IC50 came out at 134 nM in assay [1] and 12 nM in assay [2] (setting [3]).

For `CCc1ccccc1-c1nc([C@@H]2CCCN2C(=O)c2cc(Cl)ccc2-n2nccn2)no1` [compound 395], the values for the IC50 in assay [1] and in assay [2] were 31 nM and 10 nM, respectively.

Turning to `Cc1ccc(C)c(-c2nc([C@@H]3CCCN3C(=O)c3cc(Cl)ccc3-n3nccn3)no2)c1` [compound 396], the figures for the IC50 in assay [1] and in assay [2] were 134 nM and 15 nM, respectively.

Regarding `Cc1cccc(-c2nc([C@@H]3CCCN3C(=O)c3ccc(Cl)cc3-n3nccn3)no2)c1C` [compound 397], the IC50 in assay [1] was 85 nM; in assay [2] (setting [3]), 5 nM.

For `CCc1ccccc1-c1nc([C@@H]2CCCN2C(=O)c2ccc(Cl)cc2-n2nccn2)no1` [compound 398], the IC50 in assay [1] worked out at 33 nM; in assay [2] (setting [3]), 18 nM.

For `Cc1ccc(C)c(-c2nc([C@@H]3CCCN3C(=O)c3ccc(Cl)cc3-n3nccn3)no2)c1` [compound 399], the IC50 is 77 nM in assay [1] and 10 nM in assay [2] (setting [3]).

For the compound `Cc1cc(C(=O)N2CCC[C@H]2c2noc(-c3cccc(C)c3C)n2)c(-n2nccn2)cc1C` [compound 400, {(S)-2-[5-(2,3-Dimethyl-phenyl)-[1,2,4]oxadiazol-3-yl]-pyrrolidin-1-yl}-(4,5-dimethyl-2-[1,2,3]triazol-2-yl-phenyl)-methanone], the IC50 in assay [1] (setting [4]) amounted to 36 nM; in assay [2] (setting [3]), 4 nM.

Take `CCc1ccccc1-c1nc([C@@H]2CCCN2C(=O)c2cc(C)c(C)cc2-n2nccn2)no1` [compound 401, (4,5-Dimethyl-2-[1,2,3]triazol-2-yl-phenyl)-{(S)-2-[5-(2-ethyl-phenyl)-[1,2,4]oxadiazol-3-yl]-pyrrolidin-1-yl}-methanone]: the IC50 in assay [1] (setting [4]) was 7 nM; in assay [2] (setting [3]) it was 3 nM.

In the case of `Cc1ccc(C)c(-c2nc([C@@H]3CCCN3C(=O)c3cc(C)c(C)cc3-n3nccn3)no2)c1` [compound 402, {(S)-2-[5-(2,5-Dimethyl-phenyl)-[1,2,4]oxadiazol-3-yl]-pyrrolidin-1-yl}-(4,5-dimethyl-2-[1,2,3]triazol-2-yl-phenyl)-methanone], the IC50 stood at 164 nM in assay [1] (setting [4]) and 2 nM in assay [2] (setting [3]).

On to `COc1cc(C(=O)N2CCC[C@H]2c2noc(-c3cccc(C)c3C)n2)c(-n2nccn2)cc1C` [compound 403, {(S)-2-[5-(2,3-Dimethyl-phenyl)-[1,2,4]oxadiazol-3-yl]-pyrrolidin-1-yl}-(5-methoxy-4-methyl-2-[1,2,3]triazol-2-yl-phenyl)-methanone], for which the IC50 amounted to 25 nM in assay [1] (setting [4]) and 2 nM in assay [2] (setting [3]).

With `CCc1ccccc1-c1nc([C@@H]2CCCN2C(=O)c2cc(OC)c(C)cc2-n2nccn2)no1` [compound 404, {(S)-2-[5-(2-Ethyl-phenyl)-[1,2,4]oxadiazol-3-yl]-pyrrolidin-1-yl}-(5-methoxy-4-methyl-2-[1,2,3]triazol-2-yl-phenyl)-methanone], the IC50 turned out to be 23 nM in assay [1] (setting [4]) and 3 nM in assay [2] (setting [3]).

In the case of `COc1cc(C(=O)N2CCC[C@H]2c2noc(-c3cc(C)ccc3C)n2)c(-n2nccn2)cc1C` [compound 405, {(S)-2-[5-(2,5-Dimethyl-phenyl)-[1,2,4]oxadiazol-3-yl]-pyrrolidin-1-yl}-(5-methoxy-4-methyl-2-[1,2,3]triazol-2-yl-phenyl)-methanone], the IC50 in assay [1] (setting [4]) turned out to be 33 nM; in assay [2] (setting [3]), 1 nM.

Consider `COc1cc(C(=O)N2CCC[C@H]2c2noc(-c3cccc(C)c3C)n2)c(-n2nccn2)cc1Cl` [compound 406], for which the IC50 in assay [1] (setting [4]) is 22 nM; in assay [2] (setting [3]), 2 nM.

On to `CCc1ccccc1-c1nc([C@@H]2CCCN2C(=O)c2cc(OC)c(Cl)cc2-n2nccn2)no1` [compound 407], for which the half-inhibitory concentration (IC50) was 15 nM in assay [1] (setting [4]) and 3 nM in assay [2] (setting [3]).

As for `COc1cc(C(=O)N2CCC[C@H]2c2noc(-c3cc(C)ccc3C)n2)c(-n2nccn2)cc1Cl` [compound 408], the half-inhibitory concentration (IC50) in assay [1] (setting [4]) was 31 nM; in assay [2] (setting [3]), 2 nM.

As for `COc1cc(C)cc(-c2nc([C@@H]3CCCN3C(=O)c3cc(C)ccc3-n3nccn3)no2)c1` [compound 409, {(S)-2-[5-(3-Methoxy-5-methyl-phenyl)-[1,2,4]oxadiazol-3-yl]-pyrrolidin-1-yl}-(5-methyl-2-[1,2,3]triazol-2-yl-phenyl)-methanone], the IC50 came to 45 nM in assay [1] (setting [4]) and 12 nM in assay [2] (setting [3]).

For `COc1ccc(C)c(-c2nc([C@@H]3CCCN3C(=O)c3cc(C)ccc3-n3nccn3)no2)c1` [compound 410, {(S)-2-[5-(5-Methoxy-2-methyl-phenyl)-[1,2,4]oxadiazol-3-yl]-pyrrolidin-1-yl}-(5-methyl-2-[1,2,3]triazol-2-yl-phenyl)-methanone], the 50% inhibitory concentration (IC50) in assay [1] (setting [4]) was 140 nM; in assay [2] (setting [3]), 14 nM.

As for `COc1ccc(C)cc1-c1nc([C@@H]2CCCN2C(=O)c2cc(C)ccc2-n2nccn2)no1` [compound 411, {(S)-2-[5-(2-Methoxy-5-methyl-phenyl)-[1,2,4]oxadiazol-3-yl]-pyrrolidin-1-yl}-(5-methyl-2-[1,2,3]triazol-2-yl-phenyl)-methanone], the IC50 in assay [1] (setting [4]) came to 99 nM; in assay [2] (setting [3]), 9 nM.

With `COc1cc(C)cc(-c2nc([C@@H]3CCCN3C(=O)c3ccc(C)cc3-n3nccn3)no2)c1` [compound 412, {(S)-2-[5-(3-Methoxy-5-methyl-phenyl)-[1,2,4]oxadiazol-3-yl]-pyrrolidin-1-yl}-(4-methyl-2-[1,2,3]triazol-2-yl-phenyl)-methanone], the IC50 in assay [1] (setting [4]) was 109 nM; in assay [2] (setting [3]), 80 nM.

With `COc1ccc(C)c(-c2nc([C@@H]3CCCN3C(=O)c3ccc(C)cc3-n3nccn3)no2)c1` [compound 413, {(S)-2-[5-(5-Methoxy-2-methyl-phenyl)-[1,2,4]oxadiazol-3-yl]-pyrrolidin-1-yl}-(4-methyl-2-[1,2,3]triazol-2-yl-phenyl)-methanone], the IC50 is 163 nM in assay [1] (setting [4]) and 30 nM in assay [2] (setting [3]).

Turning to `COc1ccc(C)cc1-c1nc([C@@H]2CCCN2C(=O)c2ccc(C)cc2-n2nccn2)no1` [compound 414, {(S)-2-[5-(2-Methoxy-5-methyl-phenyl)-[1,2,4]oxadiazol-3-yl]-pyrrolidin-1-yl}-(4-methyl-2-[1,2,3]triazol-2-yl-phenyl)-methanone], the IC50 in assay [1] (setting [4]) amounted to 331 nM; in assay [2] (setting [3]), 35 nM.

As for `COc1cc(C)cc(-c2nc([C@@H]3CCCN3C(=O)c3cc(Cl)ccc3-n3nccn3)no2)c1` [compound 415], the IC50 in assay [1] (setting [4]) was 193 nM; in assay [2], 49 nM.

For the compound `COc1ccc(C)c(-c2nc([C@@H]3CCCN3C(=O)c3cc(Cl)ccc3-n3nccn3)no2)c1` [compound 416], the values for the IC50 in assay [1] and in assay [2] (setting [3]) were 152 nM and 20 nM, respectively.

Regarding `COc1ccc(C)cc1-c1nc([C@@H]2CCCN2C(=O)c2cc(Cl)ccc2-n2nccn2)no1` [compound 417], the IC50 in assay [1] (setting [4]) is 271 nM; in assay [2] (setting [3]), 21 nM.

Take `COc1cc(C)cc(-c2nc([C@@H]3CCCN3C(=O)c3ccc(Cl)cc3-n3nccn3)no2)c1` [compound 418]: the IC50 in assay [1] stood at 85 nM; in assay [2] (setting [3]) it was 25 nM.

`COc1ccc(C)c(-c2nc([C@@H]3CCCN3C(=O)c3ccc(Cl)cc3-n3nccn3)no2)c1` [compound 419]: the concentration for half-maximal inhibition (IC50) in assay [1] (setting [4]) came out at 207 nM; in assay [2], 16 nM.

Consider `Cc1ccc(-n2nccn2)c(C(=O)N2CCC[C@H]2c2cc(-c3cccc(C)c3C)no2)c1` [compound 422, {(S)-2-[3-(2,3-Dimethyl-phenyl)-isoxazol-5-yl]-pyrrolidin-1-yl}-(5-methyl-2-[1,2,3]triazol-2-yl-phenyl)-methanone], for which the IC50 came to 152 nM in assay [1] (setting [4]) and 4 nM in assay [2] (setting [3]).

Turning to `Cc1cc(C)cc(-c2cc([C@@H]3CCCN3C(=O)c3cc(C)ccc3-n3nccn3)on2)c1` [compound 423, {(S)-2-[3-(3,5-Dimethyl-phenyl)-isoxazol-5-yl]-pyrrolidin-1-yl}-(5-methyl-2-[1,2,3]triazol-2-yl-phenyl)-methanone], the IC50 turned out to be 81 nM in assay [1] (setting [4]) and 39 nM in assay [2] (setting [3]).

As to `Cc1ccc(-n2nccn2)c(C(=O)N2CCC[C@H]2c2cc(-c3cccc(Cl)c3C)no2)c1` [compound 424], the IC50 in assay [1] (setting [4]) amounted to 8 nM; in assay [2] (setting [3]), 4 nM.

With `Cc1ccc(-n2nccn2)c(C(=O)N2CCC[C@H]2c2cc(-c3ccccc3OC(F)(F)F)no2)c1` [compound 425, (5-Methyl-2-[1,2,3]triazol-2-yl-phenyl)-{(S)-2-[3-(2-trifluoromethoxy-phenyl)-isoxazol-5-yl]-pyrrolidin-1-yl}-methanone], the IC50 in assay [1] (setting [4]) came to 4 nM; in assay [2] (setting [3]), 10 nM.

`COc1ncccc1-c1cc([C@@H]2CCCN2C(=O)c2cc(C)ccc2-n2nccn2)on1` [compound 426, {(S)-2-[3-(2-Methoxy-pyridin-3-yl)-isoxazol-5-yl]-pyrrolidin-1-yl}-(5-methyl-2-[1,2,3]triazol-2-yl-phenyl)-methanone]: the half-inhibitory concentration (IC50) in assay [1] (setting [4]) was 414 nM; in assay [2] (setting [3]), 30 nM.

Take `Cc1ccc(-n2nccn2)c(C(=O)N2CCC[C@H]2c2cc(-c3cccnc3OC(C)C)no2)c1` [compound 427, {(S)-2-[3-(2-Isopropoxy-pyridin-3-yl)-isoxazol-5-yl]-pyrrolidin-1-yl}-(5-methyl-2-[1,2,3]triazol-2-yl-phenyl)-methanone]: the concentration for half-maximal inhibition (IC50) stood at 80 nM in assay [1] (setting [4]) and 292 nM in assay [2] (setting [3]).

As for `CCOc1ncccc1-c1cc([C@@H]2CCCN2C(=O)c2cc(C)ccc2-n2nccn2)on1` [compound 428, {(S)-2-[3-(2-Ethoxy-pyridin-3-yl)-isoxazol-5-yl]-pyrrolidin-1-yl}-(5-methyl-2-[1,2,3]triazol-2-yl-phenyl)-methanone], the values for the 50% inhibitory concentration (IC50) in assay [1] (setting [4]) and in assay [2] (setting [3]) were 67 nM and 28 nM, respectively.
